Tests used:
hES cells, H1 or H9 = assay: Liposomal ceramide treatment of hES cell colonies co-cultured with mouse feeder cells; assay type: cell-based
Procedure: Mouse feeder cells are irradiated (7500 Rad) and plated (2×10^4 cells/cm^2) on 6-well plates pre-coated with 0.1% gelatin. Feeder cells are allowed to attach and grow overnight prior to hES cell co-culture. Human ES cells are maintained with Dulbecco's Modified Eagle Medium/F12 (Gibco) supplemented with 20% KnockOut serum replacement (Gibco), 1% nonessential amino acids (Gibco), 2 mM GlutaMAX-1 (Gibco), 4 ng/ml basic human FGF (Invitrogen) and 0.1 mM beta-mercaptoethanol (Sigma). Cells are manually passaged following 10 min of collagenase IV incubation (1 mg/ml) at 1:5-1:10 split ratio every 5-7 days. […] Human ES cells co-cultured with feeder cells are treated with collagenase IV for 10 min, collected manually and plated in a 1:3-1:5 split ratio (day=0). Cells are maintained with normal hES cell culture medium until treatment with ceramide (day=2).
Increasing concentrations, 1, 3, 5, 10, 15 and 30 micromolar, of liposomal C6-ceramide are added to hES cell culture medium after a majority of the colonies had reached a size between 0.5-0.7 mm in diameter (day 5-6 of the culture). Relative volumes of “ghost liposome” containing no ceramide are used as a control. These ghost liposomes contained an equal mass of total lipids as ceramide formulations. […]

[1] = tested on: hES cells maintained in feeder cells-free culture system; assay: Liposomal ceramide treatment of hES cells in feeder cell-free culture (GFR-MATRIGEL); assay type: cell-based, human; details: five micromolar
Text: NIH-registered hES cell lines, H1 (WA-01; 46XY) and H9 (WA-09; 46XX), are maintained on mouse embryonic fibroblasts (feeder cells) as recommended by the WiCell Research Institute (Madison, Wis.). Mouse feeder cells are irradiated (7500 Rad) and plated (2×10^4 cells/cm^2) on 6-well plates pre-coated with 0.1% gelatin. Feeder cells are allowed to attach and grow overnight prior to hES cell co-culture. Human ES cells are maintained with Dulbecco's Modified Eagle Medium/F12 (Gibco) supplemented with 20% KnockOut serum replacement (Gibco), 1% nonessential amino acids (Gibco), 2 mM GlutaMAX-1 (Gibco), 4 ng/ml basic human FGF (Invitrogen) and 0.1 mM beta-mercaptoethanol (Sigma). Cells are manually passaged following 10 min of collagenase IV incubation (1 mg/ml) at 1:5-1:10 split ratio every 5-7 days. For feeder cell-free culture, hES cells are plated and cultured on 6-well dishes coated with growth factor reduced (GFR)-MATRIGEL, diluted 1:24 in DMEM/F12. Human ES cells co-cultured with feeder cells are treated with collagenase IV for 10 min, collected manually and plated in a 1:3-1:5 split ratio (day=0). Cells are maintained with normal hES cell culture medium until treatment with ceramide (day=2). […]
Light microscopy images of cells from 10 random fields are recorded using a Nikon TS-100 phase-contrast microscope and a Nikon CoolPix 5000 digital camera. […]

hES cells [2] = assay: Apoptosis detection by TUNEL assay; assay type: cell-based, human; details: Example 22, hESC colonies
Procedure: Ceramide-induced apoptosis is assessed and visualized by TUNEL assay using the In Situ Cell Death Detection Kit, TMR Red (Roche Applied Bioscience). A TUNEL (Terminal deoxynucleotidyl Transferase Biotin-dUTP Nick End Labeling) assay measures and quantitates apoptosis by labeling DNA strand breaks in individual cells and detecting them by fluorescence microscopy. Human ES cells are cultured on glass cover-slips coated with 0.1% gelatin and mouse feeder cells. When the majority of the colonies reached the size of 0.5-0.7 mm (usually by day 5 of the culture), cells are treated with liposomal C6-ceramide (3 micromolar final) or ghost (no ceramide) for 12 hr. Cells are incubated for 12 hr because cells undergoing apoptosis are still attached to the cover-slip, making observation convenient. After 12 hr, cells become round and detached. At the end of the treatment period, cells are fixed with 4% formaldehyde (Tousimis) in PBS. TUNEL assay is performed using the In Situ Cell Death Detection Kit, TMR Red (Roche Applied Bioscience) following the manufacturer's instructions. Briefly, cells are permeabilized by incubating in 0.1% PBST for 2 min on ice. TUNEL reaction mixture is prepared freshly by mixing 50 microliters of enzyme solution (terminal deoxynucleotidyl transferase) with 450 microliters label solution (nucleotide mixture). […]

hES cells [3] = assay: In vitro differentiation of hES cells; assay type: cell-based, human; details: after elimination of ceramide-sensitive cells
Text: Once separated from feeder cells and serum, hES cells typically spontaneously differentiate into progenitor cells and such cultures include ectoderm, mesoderm and endoderm progenitor cells. Similar to in vivo embryogenesis, further differentiation of these progenitor cells results in formation of terminally differentiated cell types illustratively including neurons, cardiomyocytes, endothelial, and pancreatic β-cells. The ability of hES cells to form all three embryonic lineages is one of the main criteria to determine their pluripotency. Early lineage differentiation is assessed using lineage specific markers. Exemplary lineage specific markers include nestin for ectodermal; α-fetoprotein for endodermal; and brachyury for mesodermal. Later stages of differentiation of these progenitor cells into specialized cells are assessed by assay of markers for more specialized cells representing three lineages, such as serotonergic neurons, insulin-positive cells, and cardiomyocytes.
To assess in vitro differentiation, hES cells are isolated and transferred into non-coated culture plates where hES cells form embryoid bodies (EBs). For neuronal differentiation, these EBs are treated with a neurobasal medium (insulin-transferrin-selenium) to induce neuroprogenitor cell formation for seven days. Then, bFGF ([…]) is added to medium for another seven days. […]

ceramide
effect on peripheral cells of H9 hESC colonies (hES cells, H1 or H9; 5 micromolar, 8 hrs, H9 (WA09), with MEF): eliminates cells located on the periphery of the hESC colonies | growth of central hESCs after addition of ceramide (hES cells, H1 or H9; Example 22): continue their normal growth | effect on differentiation of hESCs without feeder cells [1]: inhibits differentiation and allows maintenance of undifferentiated stem cell growth | TUNEL: apoptosis after ceramide-conditioning (hES cells [2]): hESCs on the periphery of the colonies are, indeed, undergoing apoptosis | differentiation capability of ceramide-selected hES cells (hES cells [3]): capable of differentiated into ectoderm, mesoderm or endoderm progenitor cells

From patent US7754483B2, “Systems and methods for selection and maintenance of homogeneous and pluripotent human embryonic stem cells” (The Penn State Research Foundation, priority 2005, dated 2010)
